Read-outs that look alike come from different tables or passages of the source.
Biological target: T1, human recombinant COX2 (hCOX2) (UniProt P35354)
T1 sequence (P35354 1-604): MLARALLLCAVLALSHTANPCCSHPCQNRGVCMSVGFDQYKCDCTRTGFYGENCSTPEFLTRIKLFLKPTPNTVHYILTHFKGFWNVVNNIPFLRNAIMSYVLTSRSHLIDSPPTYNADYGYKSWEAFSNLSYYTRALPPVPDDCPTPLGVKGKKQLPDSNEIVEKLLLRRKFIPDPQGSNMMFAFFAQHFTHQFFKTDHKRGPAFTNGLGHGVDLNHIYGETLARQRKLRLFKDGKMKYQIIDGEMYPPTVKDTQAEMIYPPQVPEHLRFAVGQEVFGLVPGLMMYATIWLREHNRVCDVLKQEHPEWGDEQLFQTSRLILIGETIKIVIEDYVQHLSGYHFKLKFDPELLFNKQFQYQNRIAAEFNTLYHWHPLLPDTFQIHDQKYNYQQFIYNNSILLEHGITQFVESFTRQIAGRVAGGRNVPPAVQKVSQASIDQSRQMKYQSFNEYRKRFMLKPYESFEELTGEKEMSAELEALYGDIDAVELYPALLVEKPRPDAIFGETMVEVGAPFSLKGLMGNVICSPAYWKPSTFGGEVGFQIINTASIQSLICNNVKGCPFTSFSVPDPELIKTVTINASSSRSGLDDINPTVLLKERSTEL
Assay: LCMS-based COX2 enzymatic inhibition assay (PGE2 quantification)
Format: biochemical
Set-up: COX2 2 minutes pge2/pge2d4 area ratio Avg; other: 2 minutes; readout pge2/pge2d4 area ratio; average; COX2 2 minutes pge2/pge2d4 area ratio Avg; LLE; average LLE; COX2 2 minutes pge2 area (counts) Avg; readout pge2 area (counts); other: 2 min; "ovine COX2 (oCOX2), human recombinant COX2 (hCOX2)"
Settings: 2 minutes; for COX2 2 minutes pge2/pge2d4 area ratio Avg. LLE / COX2 2 minutes pge2 area (counts) Avg. LLE: average LLE; for IC50: average
Outline: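 Ovine COX-1 (0.1 μg) or human recombinant COX2 (0.2 μg) in 100 mM Tris.HCl pH 8.0 with hematin and epinephrine, preincubated with inhibitor 10 min at 37 °C. Reaction with 5 μM arachidonic acid stopped after 2 min with HCl; PGE2 quantified by LC-MS-MS. IC50 from 12 concentrations in triplicate.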

[1] = readout pge2/pge2d4 area ratio, read-out: COX2 2 minutes pge2/pge2d4 area ratio Avg. IC50
[2] = readout pge2 area (counts), read-out: COX2 2 minutes pge2 area (counts) Avg. IC50

Compound	COX2 2 minutes pge2/pge2d4 area ratio Avg. LLE (readout pge2/pge2d4 area ratio)	IC50 [1]	COX2 2 minutes pge2 area (counts) Avg. LLE (readout pge2 area (counts))	IC50 [2]
Cn1ccc(COc2cncc(-c3ccc(S(C)(=O)=O)cc3)n2)n1 [Compound 181]	5.19	0.559 µM	5.2357	0.525 µM
COc1ncc(NCc2ccncc2)nc1-c1ccc(S(C)(=O)=O)cc1 [Compound 182]	5.042	0.559 µM	5.147	0.415 µM
COc1ncc(NCc2ccno2)nc1-c1ccc(S(C)(=O)=O)cc1 [Compound 183]	5.678	0.566 µM	5.655	0.596 µM
CS(=O)(=O)c1ccc(-n2cnc3ccc(NCc4cccs4)nc32)cc1 [Compound 184]		0.57 µM		0.457 µM
Cn1ccc(CNc2cccc(-c3ccc(S(C)(=O)=O)cc3)n2)n1 [Compound 188]	4.275	0.652 µM	4.373	0.546 µM
CS(=O)(=O)c1ccc(-c2cccc(C(=O)C(=O)c3cccs3)n2)cc1 [Compound 190]	3.528	0.711 µM	3.498	0.774 µM
CO/N=C(\c1ccc2ccn(-c3ccc(S(C)(=O)=O)cc3)c2n1)c1cccs1 [Compound 191]		0.735 µM		0.886 µM
CS(=O)(=O)c1ccc(-c2cncc(NC(=O)c3cccs3)n2)cc1 [Compound 192]	4.414	0.751 µM	4.524	0.602 µM
COc1ncc(NCc2cccs2)cc1-c1ccc(S(C)(=O)=O)cc1 [Compound 196]	2.588	0.887 µM	2.528	1.02 µM
Cn1nccc1CNc1cccc(-c2ccc(S(C)(=O)=O)cc2)n1 [Compound 197]	3.969	0.951 µM	4.01	0.832 µM
CN(Cc1ccco1)c1cccc(-c2ccc(S(C)(=O)=O)cc2)n1 [Compound 200]	2.819	1.01 µM	2.726	1.38 µM
CS(=O)(=O)c1ccc(-c2cncc(NCc3cncs3)n2)cc1 [Compound 201]	4.51	1.01 µM	4.612	0.832 µM

More lines, now with the values ahead:

COX2 2 minutes pge2/pge2d4 area ratio Avg. LLE (readout pge2/pge2d4 area ratio)	IC50 [1]	COX2 2 minutes pge2 area (counts) Avg. LLE (readout pge2 area (counts))	IC50 [2]	Compound
3.623	0.61 µM	3.623	0.572 µM	CS(=O)(=O)c1ccc(-c2cccc(NCc3cc[nH]c3)n2)cc1 [Compound 185]
	0.629 µM		0.635 µM	CS(=O)(=O)c1ccc(-n2ccc3ccc(/C(=N\O)c4cccs4)nc32)cc1 [Compound 187]
2.767	0.656 µM	2.661	0.839 µM	COCc1ccc(-c2ccc(S(C)(=O)=O)cc2)nc1NCc1cccs1 [Compound 189]
4.9351	0.772 µM	4.813	1.09 µM	CS(=O)(=O)c1ccc(-c2cncc(SCc3ccno3)n2)cc1 [Compound 193]
2.607	0.883 µM	2.538	1.04 µM	CS(=O)(=O)c1ccc(-c2cccc(Nc3ccccc3)n2)cc1 [Compound 194]
	0.885 µM		0.969 µM	CS(=O)(=O)c1ccc(-n2ccc3ccc(/C(=N/O)c4cccs4)nc32)cc1 [Compound 195]
5.815	1.05 µM	5.757	1.19 µM	CS(=O)(=O)c1ccc(-c2cncc(NCc3ccno3)n2)cc1 [Compound 202]
